Laboratory results taken from ChEMBL document CHEMBL1148887, “Design and synthesis of benzoazepinone-derived cyclic malonamides and aminoamides as potent gamma-secretase inhibitors” (Bioorg Med Chem Lett, 2007).

Tests used:
Gamma-secretase [1] = assay: Inhibition of gamma secretase in APP-transfected CHO cells; type: cell-based, Homo sapiens
Gamma-secretase [2] = assay: Displacement of [3H]succinamide from gamma secretase in THP1 cell membranes; design: species or system Homo sapiens; details: thp-1
[3] = Half life in Beagle dog at 0.5 mg/kg, po; type: ADME, organism-based, Canis lupus familiaris; design: dose 0.5 mg/kg, route oral; details: in vivo
[4] = Oral bioavailability in Beagle dog at 0.5 mg/kg, po; type: ADME, organism-based, Canis lupus familiaris; details: in vivo
[5] = Clearance in Beagle dog at 0.5 mg/kg, po; type: ADME, organism-based, Canis lupus familiaris; design: dose 0.5 mg/kg, route oral; details: in vivo
Canis familiaris = assay: Volume of distribution at steady state in Beagle dog at 0.5 mg/kg, po; type: ADME, organism-based, Canis lupus familiaris; design: dose 0.5 mg/kg, route oral; details: in vivo
[6] = Cmax in Beagle dog at 0.5 mg/kg, po; type: ADME, organism-based, Canis lupus familiaris; design: dose 0.5 mg/kg, route oral; details: in vivo
[7] = Fraction unbound ligand in Beagle dog at 0.5 mg/kg, po; type: ADME, organism-based, Canis lupus familiaris; design: dose 0.5 mg/kg, route oral; details: in vivo
Gamma-secretase [8] = assay: Inhibition of gamma secretase-mediated beta amyloid production in NIH3T3 cells; type: cell-based, Homo sapiens

| Compound | IC50 (Gamma-secretase [1]) [nM] | Ki (Gamma-secretase [2]) [nM] | half-life [3] [h] | bioavailability [4] [%] | CL/F [5] [mL/min/kg] | Vdss (Canis familiaris) [L/kg] | Cmax [6] [nM] | fraction unbound [7] | IC50 (Gamma-secretase [8]) [nM] |
| --- | --- | --- | --- | --- | --- | --- | --- | --- | --- |
| CCCNC(=O)C1(C(=O)N[C@H]2N=C(c3ccccc3)c3ccccc3N(C)C2=O)CCC1 | 82 | 15 | – | – | – | – | – | – | – |
| CN1C(=O)[C@@H](NC(=O)C2(C(=O)NCc3cc(F)cc(F)c3)CCC2)N=C(c2ccccc2)c2ccccc21 | 115 | 13.5 | – | – | – | – | – | – | – |
| CC(C)CNC(=O)C1(C(=O)N[C@H]2N=C(c3ccc(C(F)(F)F)cc3)c3ccccc3N(C)C2=O)CCC1 | 28 | 1.2 | – | – | – | – | – | – | – |
| CC(C)CNC(=O)C1(C(=O)N[C@H]2N=C(c3ccccc3)c3ccccc3N(C)C2=O)CCCC1 | 19.5 | 6.2 | – | – | – | – | – | – | – |
| CC(C)CCNC(=O)C1(C(=O)N[C@@H]2C(=O)N(C)c3ccccc3-c3ccccc32)CCC1 | 15 | 4 | 5.3 | 23 | 3.33 | 0.9 | 172 | 0.005 | – |
| CCCNC(=O)C(CC)(CC)C(=O)N[C@H]1N=C(c2ccccc2)c2ccccc2N(C)C1=O | – | 227 | – | – | – | – | – | – | – |
| CN1C(=O)[C@@H](NC(=O)C2(C(=O)NCCC3CCCC3)CCCC2)N=C(c2ccccc2)c2ccccc21 | – | 36 | – | – | – | – | – | – | – |
| CC(C)C[C@H](O)NC(=O)C1(C(=O)N[C@@H]2C(=O)N(C)c3ccccc3-c3ccccc32)CCC1 | 4.2 | 0.9 | – | – | – | – | – | – | – |
| CN1C(=O)[C@@H](NC(=O)C2(C(=O)NCCC3CCCC3)CCC2)N=C(c2ccc(C(F)(F)F)cc2)c2ccccc21 | 13 | 2.2 | – | – | – | – | – | – | – |
| CC(C)C[C@H](O)NC(=O)C1(C(=O)N[C@H]2N=C(c3ccc(C(F)(F)F)cc3)c3ccccc3N(C)C2=O)CCC1 | 6.1 | 2.1 | 6.5 | 84 | 0.667 | 0.2 | 2980 | 0.017 | 6.1 |
| CN1C(=O)[C@@H](NC(=O)C2(C(=O)N[C@H](O)C3CCCCC3)CCC2)N=C(c2ccc(C(F)(F)F)cc2)c2ccccc21 | 280 | 111 | – | – | – | – | – | – | – |
| CC(C)CNC(=O)C1(C(=O)N[C@H]2N=C(c3ccccc3)c3ccccc3N(C)C2=O)CCC1 | 21 | 3.5 | 5.3 | 42 | 21.7 | 3.1 | 84 | 0.004 | – |
| CCNC(=O)C(CC)(CC)C(=O)N[C@H]1N=C(c2ccccc2)c2ccccc2N(C)C1=O | – | 1000 | – | – | – | – | – | – | – |
| CC(C)CCNC(=O)C1(C(=O)N[C@H]2N=C(c3ccc(C(F)(F)F)cc3)c3ccccc3N(C)C2=O)CCC1 | 14 | 4.9 | 13.2 | 61 | 3.33 | 1.9 | 567 | 0.005 | – |
| CC(C)CNC(=O)C1(C(=O)N[C@@H]2C(=O)N(C)c3ccccc3-c3ccccc32)CCCC1 | 26.1 | 3 | – | – | – | – | – | – | – |
| CC(C)[C@H](O)NC(=O)C1(C(=O)N[C@H]2N=C(c3ccc(C(F)(F)F)cc3)c3ccccc3N(C)C2=O)CCC1 | 6.7 | 1.1 | – | – | – | – | – | – | – |
| CN1C(=O)[C@@H](NC(=O)C2(C(=O)NCc3cc(F)cc(F)c3)CCCC2)N=C(c2ccccc2)c2ccccc21 | 96 | 9.9 | – | – | – | – | – | – | – |
| CN1C(=O)[C@@H](NC(=O)C2(C(=O)NCCC3CCCC3)CCC2)c2ccccc2-c2ccccc21 | 21 | 1.3 | 13.4 | 71 | 5 | 2.9 | 365 | 0.002 | – |
| CN1C(=O)[C@@H](NC(=O)C2(C(=O)N[C@@H](O)C3CCCCC3)CCC2)N=C(c2ccc(C(F)(F)F)cc2)c2ccccc21 | 11 | 3.1 | – | – | – | – | – | – | – |
| CC(C)CNC(=O)C1(C(=O)N[C@@H]2C(=O)N(C)c3ccccc3-c3ccccc32)CCC1 | 5.8 | 1.4 | 4.6 | 47 | 8.33 | 2.1 | 184 | 0.001 | – |
| CN1C(=O)[C@@H](NC(=O)C2(C(=O)NCc3cccs3)CCCC2)N=C(c2ccccc2)c2ccccc21 | 19 | 41 | – | – | – | – | – | – | – |
| CCCCNC(=O)C1(C(=O)N[C@H]2N=C(c3ccccc3)c3ccccc3N(C)C2=O)CCC1 | 20 | 11 | – | – | – | – | – | – | – |
| CC(C)[C@H](O)NC(=O)C1(C(=O)N[C@@H]2C(=O)N(C)c3ccccc3-c3ccccc32)CCC1 | 15 | 3.9 | – | – | – | – | – | – | – |
| CC(C)CNC(=O)C1(C(=O)N[C@H]2N=C(c3ccc(C(F)(F)F)cc3)c3ccccc3N(C)C2=O)CCCC1 | 12.5 | 2 | – | – | – | – | – | – | – |
| CC(C)CC(F)(F)NC(=O)C1(C(=O)N[C@@H]2C(=O)N(C)c3ccccc3-c3ccccc32)CCC1 | 280 | 22 | – | – | – | – | – | – | – |
